Laboratory results as given in patent US8551507B2, “Terpene glycosides and their combinations as solubilizing agents” (Board of Supervisors of Louisiana State University And …, priority 2009, dated 2013).
≈ marks a conversion by molar mass, not a printed value. Where two headings read alike, the source gives them in different places.

Experiments:
[1] = 72 h
physchem [2] = details: 25 °C, water, thermodynamic from solid
[3] = Merck Index, Material Safety Data Sheets or general statement, cited from earlier work
[4] = Solubility test: low-solubility compound in water or in water solutions containing 10% w/v natural solubilizer, quantified by HPLC/LC-MS; details: 25° C. 72 hr; for Concentration in water solution With Geniposide: 10% w/v geniposide in water; for Concentration in water solution With Mogroside V: 10% w/v mogroside V in water; for Concentration in water solution With Paeoniflorin: 10% w/v paeoniflorin in water; for Concentration in water solution With Rebaudioside A: 10% w/v rebaudioside A in water; for Concentration in water solution With Rubusoside: 10% w/v rubusoside in water
[5] = Safety of daily consumption of steviol glycosides (estimates based on aglycone steviol); format: in vivo
physchem [6] = details: water
[7] = in vivo; cited from earlier work
hypertensive rats = details: intraperitoneal, 50 mg/kg and 100 mg/kg body weight, hypertensive rats (Hsu et al. 2002); cited from earlier work
[8] = cyclodextrins, comparison; cited from earlier work

Compound | Concentration in water solution With Astragaloside [1] | Concentration in water solution With Geniposide [1] | Concentration in water solution With Mogroside V [1] | Concentration in water solution With Paeoniflorin [1] | Concentration in water solution With Rubusoside [1] | Water solubility in words [3] | also measured
C[C@@H]1CC[C@H]2[C@@H](C)C(=O)O[C@@H]3O[C@@]4(C)CC[C@@H]1[C@]32OO4 [Artemisinin, artemisinin, reference compound] | 0 ng/mL | 146000 ng/mL | 148000 ng/mL | 218000 ng/mL | 280000 ng/mL | poorly soluble | solubility at 72 h (physchem [2]): 53 µg/mL (≈ 0.188 mM); Water solubility in words ([3]; listed as artemisinin): insoluble
CC[C@@]1(O)C(=O)OCc2c1cc1n(c2=O)Cc2cc3ccccc3nc2-1 [Camptothecin, camptothecin] |  |  |  |  |  | poor solubility in water | Water solubility in words ([3]; listed as camptothecin): insoluble; Concentration in water solution With Geniposide [4]: 25000 ng/mL; Concentration in water solution With Mogroside V [4]: 18000 ng/mL; Concentration in water solution With Paeoniflorin [4]: 53000 ng/mL; Concentration in water solution With Paeoniflorin ([4]; listed as camptothecin): 54000 ng/mL; Concentration in water solution With Rebaudioside A [4]: 48000 ng/mL; Concentration in water solution With Rubusoside [4]: 61000 ng/mL
Cc1ccc(-c2cc(C(F)(F)F)nn2-c2ccc(S(N)(=O)=O)cc2)cc1 [Celecoxib, celecoxib, reference compound] | 0 ng/mL | 3000 ng/mL | 47000 ng/mL | 253000 ng/mL | 488000 ng/mL | poor solubility in water | Solubility in water without solubilizer [1]: 0^2 μg/mL; Water solubility in words ([3]; listed as celecoxib): water insoluble
CC(C)/N=c1\cc2n(-c3ccc(Cl)cc3)c3ccccc3nc-2cc1Nc1ccc(Cl)cc1 [Clofazimine, clofazimine, reference compound] | 400 ng/mL | 48000 ng/mL | 58000 ng/mL | 565000 ng/mL | 132000 ng/mL | practically insoluble in water | Concentration in water solution With Rebaudioside A [1]: 109000 ng/mL; Concentration in water solution With Steviol monoside [1]: 0 ng/mL; Concentration in water solution With Stevioside [1]: 64000 ng/mL; solubility at 72 h (physchem [2]): 7.6 µg/mL (≈ 0.0161 mM)
C[C@H]1O[C@@H](O[C@H]2[C@@H](O)C[C@H](O[C@H]3[C@@H](O)C[C@H](O[C@H]4CC[C@@]5(C)[C@H](CC[C@@H]6[C@@H]5C[C@@H](O)[C@]5(C)[C@@H](C7=CC(=O)OC7)CC[C@]65O)C4)O[C@@H]3C)O[C@@H]2C)C[C@H](O)[C@@H]1O [Digoxin, digoxin] |  |  |  |  |  |  | solubility (physchem [2]): 19 µg/mL (≈ 0.0243 mM)
CO[C@H]1C[C@H](O[C@H]2CC[C@@]3(C)[C@H](CC[C@@H]4[C@@H]3CC[C@]3(C)[C@@H](C5=CC(=O)OC5)[C@@H](OC(C)=O)C[C@]43O)C2)O[C@@H](C)[C@@H]1O [Oleandrin, oleandrin] |  |  |  |  |  | practically insoluble in water | solubility (physchem [2]): 3 µg/mL (≈ 0.0052 mM); Concentration in water solution With Geniposide [4]: 28000 ng/mL; Concentration in water solution With Mogroside V [4]: 47000 ng/mL; Concentration in water solution With Paeoniflorin [4]: 42000 ng/mL; Concentration in water solution With Rebaudioside A [4]: 67000 ng/mL; Concentration in water solution With Rubusoside [4]: 123000 ng/mL; Concentration in water solution With Stevioside ([4]; 10% w/v stevioside in water): 74000 ng/mL; Concentration in water solution With Astragaloside ([4]; nominal 10% w/v astragaloside IV in water (precipitated, less than 10%)): 5000 ng/mL; Concentration in water solution With Steviol monoside ([4]; nominal 10% w/v steviol monoside in water (precipitated, less than 10%)): 7000 ng/mL
C=C1C[C@@]23CC[C@H]4[C@@](C)(CCC[C@@]4(C)C(=O)O[C@@H]4O[C@H](CO)[C@@H](O)[C@H](O)[C@H]4O)[C@@H]2CC[C@]1(O[C@@H]1O[C@H](CO)[C@@H](O)[C@H](O)[C@H]1O)C3 [Rubusoside, b-D-glucosyl ester of 13-O-b-D-glucosyl-steviol] |  |  |  |  |  | good solubility in water | No-observed-effect level ([5]; estimate based on 383 mg/kg body weight daily expressed as steviol): up to 766 mg rubusoside/kg body weight; Daily consumption that is safe and has no adverse effect ([5]; estimate based on the aglycone steviol): 8 mg rubusoside/kg body weight; solubility (physchem [6]; 25 °C): ~400000 µg/mL (≈ 622 mM); solubility (physchem [6]; 37 °C): ~800000 µg/mL (≈ 1240 mM)
CCC(C)n1ncn(-c2ccc(N3CCN(c4ccc(OCC5COC(Cn6cncn6)(c6ccc(Cl)cc6Cl)O5)cc4)CC3)cc2)c1=O (centres unmarked) [itraconazole, reference compound] |  |  |  |  |  | practically insoluble in water | 
C=C1C[C@@]23CC[C@H]4[C@@](C)(CCC[C@@]4(C)C(=O)O)[C@@H]2CC[C@]1(O)C3 [steviol] |  |  |  |  |  |  | No-observed-effect level expressed as steviol [7]: 383 mg/kg body weight daily
C=C1C[C@@]23CC[C@H]4[C@@](C)(CCC[C@@]4(C)C(=O)O[C@@H]4O[C@H](CO)[C@@H](O)[C@H](O)[C@H]4O)[C@@H]2CC[C@]1(O[C@@H]1O[C@H](CO)[C@@H](O)[C@H](O)[C@H]1O[C@@H]1O[C@H](CO)[C@@H](O)[C@H](O)[C@H]1O)C3 [stevioside] |  |  |  |  |  |  | Adverse effects (hypertensive rats): no adverse effects
OC[C@H]1O[C@@H]2O[C@H]3[C@H](O)[C@@H](O)[C@@H](O[C@H]4[C@H](O)[C@@H](O)[C@@H](O[C@H]5[C@H](O)[C@@H](O)[C@@H](O[C@H]6[C@H](O)[C@@H](O)[C@@H](O[C@H]7[C@H](O)[C@@H](O)[C@@H](O[C@H]1[C@H](O)[C@H]2O)O[C@@H]7CO)O[C@@H]6CO)O[C@@H]5CO)O[C@@H]4CO)O[C@@H]3CO [α-CD] |  |  |  |  |  |  | Solubility in water [8]: 15 g/100 mL

More lines, main results first:

Concentration in water solution With Astragaloside [1] | Concentration in water solution With Geniposide [1] | Concentration in water solution With Mogroside V [1] | Concentration in water solution With Paeoniflorin [1] | Concentration in water solution With Rubusoside [1] | Compound | Water solubility in words [3] | also measured
 |  |  |  | 111000 ng/mL | COC1=C(OC)C(=O)C(C/C=C(\C)CC/C=C(\C)CC/C=C(\C)CC/C=C(\C)CC/C=C(\C)CC/C=C(\C)CC/C=C(\C)CC/C=C(\C)CC/C=C(\C)CCC=C(C)C)=C(C)C1=O [Coenzyme Q10, coenzyme Q10] | insolubility in water | 
0 ng/mL | 4000 ng/mL | 44000 ng/mL | 5000 ng/mL | 262000 ng/mL | COc1cc(/C=C/C(=O)CC(=O)/C=C/c2ccc(O)c(OC)c2)ccc1O [Curcumin, curcumin] | insoluble in water | Concentration in water solution With Steviol monoside [1]: 4000 ng/mL; Water solubility in words ([3]; listed as curcumin): insoluble
 | 1000 ng/mL | 7000 ng/mL | 20000 ng/mL | 65000 ng/mL | CC(=O)O[C@H]1C(=O)[C@@]2(C)[C@H]([C@H](OC(=O)c3ccccc3)[C@]3(O)C[C@H](OC(=O)[C@H](O)[C@@H](NC(=O)c4ccccc4)c4ccccc4)C(C)=C1C3(C)C)[C@]1(OC(C)=O)CO[C@@H]1C[C@@H]2O [Paclitaxel, paclitaxel, reference compound] | not soluble in water | Concentration in water solution With Rebaudioside A [1]: 26000 ng/mL; Water solubility in words ([3]; listed as paclitaxel): insoluble
0 ng/mL | 16000 ng/mL | 18000 ng/mL | 37000 ng/mL | 150000 ng/mL | COc1cc(C2Oc3cc([C@H]4Oc5cc(O)cc(O)c5C(=O)[C@@H]4O)ccc3OC2CO)ccc1O (some centres unmarked) [Silybin, silybin] |  | Solubility in water without solubilizer [1]: 0^2 μg/mL
0 ng/mL | 100 ng/mL | 500 ng/mL | 23000 ng/mL | 127000 ng/mL | Cc1coc2c1C(=O)C(=O)c1c-2ccc2c1CCCC2(C)C [Tanshinone IIA, tanshinone IIA] |  | Solubility in water without solubilizer [1]: 0^2 μg/mL
